Literature values as cited in US20120064155A1, “ORAL PHARMACEUTICAL COMPOSITION FOR USE IN RESPIRATORY DISEASES” (LABORATORIOS SENOSIAIN S.A. DE C.V., priority 2009, published 2012).
In brackets after ≈: the same amount, converted by molar mass.

Experiments:
[1] = after oral administration; approximately

Structure (SMILES) | start of antihistamine effect [1] [min] | water solubility [mg/mL] | bound to plasma proteins (plasma proteins) [%]
CCOC(=O)N1CCC(=C2c3ccc(Cl)cc3CCc3cccnc32)CC1 [Loratadine] | ≤ 30 | – | –
CNC[C@H](O)c1cccc(O)c1 [Phenylephrine] | – | 100 (≈ 598 mM) | 95
